Reference: patent publication US20040171073A1, “Compounds for modulation of cholesterol transport” (Massachusetts Institute of Technology, priority 2002, published 2004)
Where two headings read alike, the source gives them in different places.

Target: T1, murine SR-BI (Mus musculus, UniProt Q61009)
T1 construct: expressed in transfected cells; host or cells: ldlA-7 (LDL receptor deficient Chinese hamster ovary cells)
T1 sequence (Q61009 1-509): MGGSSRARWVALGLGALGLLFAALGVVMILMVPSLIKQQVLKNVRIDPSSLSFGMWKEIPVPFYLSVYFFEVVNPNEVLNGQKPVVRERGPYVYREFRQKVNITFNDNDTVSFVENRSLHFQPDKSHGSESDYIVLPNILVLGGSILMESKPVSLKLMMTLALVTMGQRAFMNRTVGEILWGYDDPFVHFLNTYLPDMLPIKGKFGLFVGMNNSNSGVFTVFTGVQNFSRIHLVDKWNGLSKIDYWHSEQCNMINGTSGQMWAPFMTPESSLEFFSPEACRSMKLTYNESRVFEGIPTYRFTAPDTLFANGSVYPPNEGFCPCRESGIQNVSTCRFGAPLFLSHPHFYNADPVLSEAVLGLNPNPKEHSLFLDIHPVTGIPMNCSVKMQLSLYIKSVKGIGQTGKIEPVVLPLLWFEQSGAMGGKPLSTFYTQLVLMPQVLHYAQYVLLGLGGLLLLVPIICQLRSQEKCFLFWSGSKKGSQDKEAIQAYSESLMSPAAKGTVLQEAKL
Assay: Uptake of DiI from DiI-HDL by ldlA[mSR-BI] cells (high throughput screen and concentration dependence)
Type: cell-based

[1] = Test 1, DiI uptake from DiI-HDL, compounds at nominal 10 micromolar, ldlA[mSR-BI] cells
[2] = Test 2, DiI uptake from DiI-HDL, compounds at nominal 10 micromolar, ldlA[mSR-BI] cells

SMILES | ENDOHDL Test 1 (Test 1) | ENDOHDL Test 2 (Test 2) | other results
Cc1cccc(N2C(=O)CC(N3CCOCC3)C2=O)c1 (stereo not shown) [MIT 9952-80] | 1.34 | 1.2 | 
O=C(Nc1sc2c(c1C(=O)NCCc1ccc(O)cc1)CCCC2)c1ccccc1 [MIT 9952-296] |  |  | ENDOHDL Test 1 [1]: 0.63; ENDOHDL Test 2 [2]: 0.61
O=C(Nc1cc(Cl)ccc1Cl)c1cc(Br)ccc1NS(=O)(=O)c1ccc(Cl)c([N+](=O)[O-])c1 [MIT 9952-132] |  |  | ENDOHDL Test 1: 0.65; ENDOHDL Test 2: 0.46
Cl.NCCc1nc2ccccc2[nH]1 [MIT 9952-25] | 1.21 | 1.69 | 
CCS(=O)(=O)C(=C(Nc1ccc(OC)cc1)Nc1ccc(OC)cc1)S(=O)(=O)CC [MIT 9952-57] | 1.13 | 1.25 | 
O=C(Nc1ccc(NC(=O)c2cccc([N+](=O)[O-])c2)c(Cl)c1)c1cccc([N+](=O)[O-])c1 [MIT 9952-162] | 0.55 | 0.4 | 
CCN(CC(O)COc1ccccc1C(C)=O)S(=O)(=O)[O-].[Na+] (stereo not shown) [MIT 9952-250] | 1.28 | 1.24 | 
CCOc1ccc2nc3cc(/N=N/c4ccc(N)nc4N)ccc3c(N)c2c1 [MIT 9952-320] |  |  | ENDOHDL Test 1 [1]: 0.54; ENDOHDL Test 2 [2]: 0.83
O=C(Nc1ccc(Cl)c([N+](=O)[O-])c1)c1cccc(C(=O)Nc2ccc(Cl)c([N+](=O)[O-])c2)c1 [MIT 9952-219] | 0.55 | 0.55 | 
NC(=O)N/N=C/c1ccc(-c2ccc([N+](=O)[O-])cc2)o1 [MIT 9952-326] |  |  | ENDOHDL Test 1 [1]: 0.55; ENDOHDL Test 2 [2]: 0.53
CCc1nnc(N2CCN(c3ncnc4c3cnn4-c3ccccc3)CC2)s1 [MIT 9952-248] | 0.68 | 0.66 | 
CC[n+]1c(/C=C/SC)ccc2ccccc21 [MIT 9952-260] | 0.56 | 0.58 | 
Br.NS(=O)(=O)c1ccc(Nc2nc(-c3ccc(Cl)cc3)cs2)cc1 [MIT 9952-293] |  |  | ENDOHDL Test 1 [1]: 0.69; ENDOHDL Test 2 [2]: 0.67

The next lines start with results.

ENDOHDL Test 1 (Test 1) | ENDOHDL Test 2 (Test 2) | SMILES | other results
0.61 | 0.51 | COc1ccc(N/N=C2\C(=O)ON=C2c2ccc(OC)cc2)cc1 [MIT 9952-272] | 
0.69 | 0.47 | COc1c(Cl)cc(Cl)cc1C(=O)Nc1ccc(Br)cc1 [MIT 9952-155] | 
0.42 | 0.51 | NC(=S)Nc1ccc2c(c1)Nc1ccccc1CC2 [MIT 9952-175] | 
0.64 | 0.71 | COc1cccc(/C=N/Nc2ccc([N+](=O)[O-])cc2)c1 [MIT 9952-240] | 
0.58 | 0.59 | COc1ccccc1C(=O)NC(Nc1cccc2ccccc12)C(Cl)(Cl)Cl (stereo not shown) [MIT 9952-134] | 
1.47 | 1.35 | O=C(O)c1ccc2c(c1)C(=O)N(c1ccc(C(=O)OCC(=O)c3ccccc3)cc1)C2=O [MIT 9952-190] | 
0.63 | 0.66 | COc1ccc([N+](=O)[O-])cc1NC(=S)NC(NC(=O)c1ccccc1Br)C(Cl)(Cl)Cl (stereo not shown) [MIT 9952-125] | 
0.55 | 0.82 | NC(/N=N/c1ccccc1)=N\Nc1ccccc1 [MIT 9952-122] | 
0.55 | 0.61 | Nc1nc(-c2ccccc2)nc2sc3c(c12)CCCC3 [MIT 9952-15] | 
0.48 | 0.55 | Cc1nc(-c2ccc([N+](=O)[O-])cc2)c(C(=O)Nc2ccccc2)s1 [MIT 9952-160] | 
0.6 | 0.5 | Cc1ccc(NC(=O)c2ccc([N+](=O)[O-])c(C)c2)cc1Cl [MIT 9952-224] | 
0.51 | 0.43 | CN(C)CC(=O)Nc1ccc2c(c1)Nc1ccccc1CC2.Cl [MIT 9952-152] | 
0.55 | 0.62 | NS(=O)(=O)c1ccc(N=N/C(=N/Nc2ccc(S(N)(=O)=O)cc2)c2ccccc2)cc1 [MIT 9952-204] | 
